Assay: xn = mol fraction of the nth substance listed
Details: 101 kPa, Liquid; for viscosity: Capillary tube (Ostwald / Ubbelohde) method; for mass density: Pycnometric method

CC1OC(C)OC(C)O1 (centres undefined) [2,4,6-trimethyl-1,3,5-trioxane] + CCCCOC(C)=O
Details	mass density, 298.15 K [kg/m3]	mass density, 303.15 K [kg/m3]	mass density, 308.15 K [kg/m3]	viscosity, 298.15 K [mPa·s]	viscosity, 303.15 K [mPa·s]	viscosity, 308.15 K [mPa·s]
x1 = 0.0186	878.3	873.2	868.2	0.688	0.637	0.581
x1 = 0.0368	880.3	875.1	870.1	0.693	0.641	0.586
x1 = 0.0556	882.3	877.1	872	0.696	0.646	0.588
x1 = 0.0744	884.3	879.1	874	0.697	0.65	0.592
x1 = 0.093	886.3	881	875.9	0.699	0.653	0.594
x1 = 0.1873	896.5	891.1	885.7	0.713	0.668	0.612
x1 = 0.2831	906.9	901.4	895.9	0.728	0.685	0.629
x1 = 0.3807	917.7	912	906.4	0.755	0.706	0.649
x1 = 0.4799	928.6	922.9	917.2	0.786	0.735	0.676
x1 = 0.5802	939.8	934.1	928.2	0.831	0.771	0.708
x1 = 0.6828	951.5	945.7	939.7	0.882	0.816	0.746
x1 = 0.7863	963.2	957.6	951.4	0.945	0.867	0.793
x1 = 0.8924	975.6	969.9	963.7	1.025	0.933	0.848
x1 = 1	988.4	982.6	976.4	1.107	1.001	0.907

Source: the NIST ThermoML archive (doi:10.1016/j.jct.2006.03.014)
